In patent US20230105108A1, “COMPOUNDS FOR THE TREATMENT OF BACTERIAL INFECTIONS AND POTENTIATION OF ANTIBIOTICS” (GEORGIA STATE UNIVERSITY RESEARCH FOUNDATION, INC., priority 2019, published 2023):
Structures can show the parent of a compound that is named as a salt. Where two headings read alike, the source gives them in different places. Marks after values point to notes of the source that are not given here.

Columns and labels:
E. coli (ATCC 25922) = assay: MIC determination, sensitization fold and FIC index on E. coli; format: cell-based; conditions: for MIC: Escherichia coli, ATCC25922, 24 h; for MIC of AB with MD-124: MD-124 concentration 5 μg/ml
Procedure, shortened: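 MICs read by OD600 as >90% growth inhibition after two-fold rifampicin dilutions, 5×10^5 CFU/ml E. coli, 24 h, 37 °C, shaken, cation-adjusted Mueller Hinton II broth.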

[1] = IC50 of Table 7 (cell line not stated); format: cell-based
[2] = system: H9c2 (ATCC CRL-1446) cells; assay: Cytotoxicity in H9c2 cells (CCK-8); format: cell-based; conditions: H9c2 cell line
Procedure, shortened: (§1)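 H9c2 cells were grown in DMEM with 10% FBS, seeded the day before, and exposed to a range of di-amidine concentrations for 24 h at 37 °C, 5% CO2. Viability was read by CCK-8 after 3 h at 37 °C as absorbance at 450 nm.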

B. subtilis = assay: MIC determination and sensitization fold on B. subtilis; format: cell-based; conditions: for Sensitization fold: erythromycin; for sensitization fold with 5.5 μg/ml DB2560: B. subtilis towards the antibiotic
M. smegmatis = assay: MIC on mycobacteria; format: cell-based, Mycobacterium smegmatis; conditions: Mycolicibacterium smegmatis, read-out: MIC on mycobacteria
[3] = Cytotoxicity in H9c2 cells (CCK-8); format: cell-based; conditions: rat, H9c2 cells; H9c2 cell line
Procedure, shortened: as §1

NIH3T3 cells = assay: Cytotoxicity on mammalian cells (CCK-8), NIH3T3; format: cell-based; conditions: 3T3 cell line; 24 h
Procedure, shortened: (§2)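 Cells seeded a day ahead to ~80% confluency, exposed to varied compound concentrations for 24 h at 37° C, 5% CO2. CCK-8 added for a further 2 h and OD 450 nm read; viability expressed as percent of untreated control.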

MRSA (ATCC 33592) = assay: MIC determination and sensitization fold on MRSA; format: cell-based, methicillin-resistant Staphylococcus aureus; conditions: for Sensitization fold: MRSA, rifampicin
HEK293 cells = assay: Cytotoxicity on mammalian cells (CCK-8), HEK293; format: cell-based; conditions: for CC50: HEK293 cell line, 24 h; for IC50: Homo sapiens, HEK293
Procedure, shortened: as §2

[4] = system: A. baumannii (ATCC 17978); assay: MIC, sensitization fold and FIC index on A. baumannii; format: cell-based; conditions: for Sensitization fold with 5 μg/ml MD-124: A. baumannii towards the antibiotic
K. pneumoniae (43816) = assay: MIC, sensitization fold and FIC index on K. pneumoniae; format: cell-based
E. coli [5] = assay: Ex vivo skin burn infection model, wild-type E. coli; conditions: human skin burn, hypromellose gel, 24 hours; 4‰ (w/w) novobiocin, 1.5‰ MD-124
Description: To achieve topical application, compounds were formulated as hypromellose gel. […] After that, skin was loaded with hypromellose gel with different antibiotics and cultured at 37° C. for 24 hours. After 24 hours incubation, the skin sample was homogenized and the supernatants were serially diluted and plated on agar plates, from which bacterial counts on the skin was calculated. […] 1‰ polymyxin B hypromellose gel was used as positive control.

[6] = system: NDM-1 expressing E. coli strain; assay: microbe, parasite or virus in culture; format: cell-based; conditions: NDM-1 expressing E. coli towards the antibiotic
MRSA and E. coli = assay: Composition of mixed MRSA and E. coli under antibiotic pressure; format: cell-based; conditions: trovafloxacin 16 ng/ml
Description: FIG. 11 contains graphs showing that MD-108 can change the composition between MRSA and E. coli (Panel A) or MRSA and B. subtilis (Panel B) when the bacteria strains are under the same antibiotic pressure.
As a proof of concept, the relative ratio of E. coli and MRSA or B. subtilis and MRSA was measured with and without MD-108 (FIGS. 11A and B). […] When supplied with 1.5 μg/ml MD-108 and 8 ng/ml trovafloxacin, the MRSA inhibition was achieved, leaving E. coli as the dominant species (89% of the bacteria population).

E. coli [7] = assay: Lysozyme assay (outer membrane disruption); format: cell-based; conditions: 50 μg/ml lysozyme, 50 μg/ml sensitizer, 10 min
Description: Lysozyme assay to evaluate the disruption of Gram-negative bacteria out membrane by bacterial sensitizers. Lysozyme assay was performed based on literature reported method. E. coli was cultured in Mueller Hinton II cation-adjusted broth for overnight, centrifuged at 3000 g for 10 min, washed with HEPES buffer (pH=7.2) and then centrifuged again to obtain bacteria pallet. The pallet was then gently resuspended in HEPES buffer with 5 mM NaCN to obtain an E. coli suspension with OD600 between 0.8˜1.0. On a 96-well plate, each well was supplied with 100 μl lysozyme solution (100 μg/ml) containing 50 or 100 μg/ml bacterial sensitizers in HEPES buffer. To each well was added 100 μl E. coli suspension. The final concentration of lysozyme was 50 μg/ml. The plate was incubated at room temperature for 10 min and the OD600 was recorded. E. coli was also incubated with bacterial sensitizers in the absence of lysozyme to test if bacterial sensitizers would directly induce bacterial lysis. E. coli that was incubated with lysozyme alone or E. coli without any treatment were also used as negative control.

[8] = system: E. coli (lipid A part of LPS); assay: Dansyl-PMBN displacement assay; format: binding; conditions: E. coli with 10 μM Dansyl-PMBN; sensitizer 0 to 200 μM
Description: Panel (C) depicts a Dansyl-PMBN displacement assay. […] The fluorescent intensity of 10 μM Dansyl-PMBN in HEPES buffer was recorded as baseline F0. Fluorescent intensity/%=(F1−Fx)/(F1−F0). […] All results are triplicates.
Dansyl-PMBN displacement assay. Dansyl-PMBN was synthesized according to literature procedure. Dansyl-PMBN was dissolved in H2O to make 500 μM stock. Bacterial sensitizers were dissolved in ethanol to make 10 mM stock solutions. […] The E. coli stock was centrifuged at 3000 g for 10 min, washed with HEPES buffer (pH=7.2) and then centrifuged again to obtain bacteria pallet. The pallet was then gently resuspended in HEPES buffer to obtain a E. coli suspension with OD600 about 0.3. The experiment was performed on 96-well plates. Each well was supplied with 100 μl coli suspension with 10 μM Dansyl-PMBN, then to each well, different concentrations of bacterial sensitizers were added to achieve a final concentration ranging from 0 to 200 μM.
Mg^2+ can bridge between adjacent lipid A and enhance the membrane integrity. […] This phenomenon was also observed on MD-100. The culture medium for E. coli is Muller Hinton Broth (Cation adjusted), which already has at least 0.5 mM Mg^2+, so the “zero concentration point of Mg^2+” in FIG. 4 represents the amount of exogenous Mg^2+, not the total Mg^2+ in the culture medium. […] A fluorescent conjugate of a polymyxin-B derivative (Dansyl-PMBN, Scheme 3), which would show increased fluorescent intensity after binding to the lipid A part of LPS, was used to further probe this issue. In the presence of another component that can also binding to lipid A, Dansyl-PMBN would be replaced, leading to decreased fluorescent intensity.

[9] = E. coli, rifampicin, 10 μg/ml bacterial sensitizer
[10] = E. coli, rifampicin, compound at 25 μM
[11] = 10 μM compound, rifampicin as the antibiotic (Table 6)
[12] = E. coli, rifampicin, compound at 10 μM
[13] = E. coli towards the antibiotic, MD-124 5 μg/ml

N=C(N)Nc1ccc(-c2ccc(-c3nc4ccc(NC(=N)N)cc4[nH]3)o2)cc1 [DB704]
Sensitization fold (E. coli (ATCC 25922); [9]): 16^a fold
IC50 [1]: 100 µM

N=C(N)N/N=C/c1ccc(-c2ccc(-c3ccc(/C=N/NC(=N)N)cc3)s2)cc1 [DB1079]
Sensitization fold (E. coli (ATCC 25922); E. coli, rifampicin, 5 μg/ml bacterial sensitizer): 64^b fold
IC50 [1]: 12 µM

N=C(N)c1ccc(-c2ccc(-c3ccc(C(=N)N)cc3)[se]2)cc1 [DB1213]
Sensitization fold (E. coli (ATCC 25922); [9]): 32^a fold
IC50 [1]: 50 µM

N=C(N)c1ccc(OCc2ccc(-c3ccc(C(=N)N)cc3)cc2)cc1 [DB2542]
CC50 [2]: 100 µM
MIC (E. coli (ATCC 25922); E. coli, compound alone, read-out: MIC): 50 µM

N=C(N)c1ccc(OCc2cccc(COc3ccc(C(=N)N)cc3)c2)cc1 [DB2559, 1,3-Bis {(4-amidino)-phenoxymethyl}-benzene dihydrochloride]
Sensitization fold (B. subtilis; B. subtilis, compound at 6 μM): 4-fold at 6 μM
Sensitization fold (B. subtilis; B. subtilis, compound at 12 μM): 8-fold at 12 μM;
MIC (B. subtilis; Bacillus subtilis, 24 h, B. subtilis, compound alone, read-out: MIC): 25 µM
CC50 [2]: 100 µM
MIC (M. smegmatis): 12 µM
Sensitization fold (E. coli (ATCC 25922); [10]): 8-fold at 25 μM;
Sensitization fold (E. coli (ATCC 25922); E. coli, rifampicin, compound at 50 μM): 16-fold at 50 μM;
MIC (E. coli (ATCC 25922)): 100 µM

COc1cc(C(=N)N)ccc1OCc1cc(C)cc(COc2ccc(C(=N)N)cc2OC)c1 [MD-103, 4,4′-(((5-methyl-1,3-phenylene)bis(methylene))bis(oxy))bis(3-methoxybenzimidamide) dihydrochloride]
CC50 at 24 h [3]: > 100 µM
CC50 (NIH3T3 cells): 100 µM
MIC (M. smegmatis): 12.5 µM
Sensitization fold (E. coli (ATCC 25922); [11]): 2 fold
Sensitization fold (E. coli (ATCC 25922); [12]): 2-fold at 10 μM
Sensitization fold (E. coli (ATCC 25922); [10]): 4-fold at 25 μM
MIC (E. coli (ATCC 25922)): 50 µM
Sensitization fold (MRSA (ATCC 33592); compound at 6 μM): 2 to 4-fold at 6 μM
Sensitization fold (MRSA (ATCC 33592); compound at 12 μM): 8 to 16-fold at 12 μM,
CC50 (HEK293 cells): 100 µM
IC50 (HEK293 cells): 100 µM

Cc1cc(COc2ccc(NC(=N)N)cc2)cc(COc2ccc(NC(=N)N)cc2)c1 [MD-125, 1,1′-((((5-methyl-1,3-phenylene)bis(methylene))bis(oxy))bis(4,1-phenylene)) diguanidine di(trifluoroacetate)]
CC50 [2]: 100 µM
CC50 (NIH3T3 cells): 100 µM
Sensitization fold (E. coli (ATCC 25922); [11]): 8 fold
Sensitization fold (E. coli (ATCC 25922); [12]): 8-fold at 10 μM
Sensitization fold (E. coli (ATCC 25922); [10]): 32-fold at 25 μM
MIC (E. coli (ATCC 25922)): 100 µM
CC50 (HEK293 cells): 100 µM
IC50 (HEK293 cells): 100 µM

CO[C@@H]1[C@@H](OC(N)=O)[C@@H](O)[C@H](Oc2ccc3c(O)c(NC(=O)c4ccc(O)c(CC=C(C)C)c4)c(=O)oc3c2C)OC1(C)C [Novobiocin, reference compound]
sensitization fold with 5.5 μg/ml DB2560 (B. subtilis): 4 fold
Sensitization fold with 5 μg/ml MD-124 [4]: 32 fold
FIC index between MD-124 and antibiotic ([4]; A. baumannii, checkerboard assay): 0.20
MIC of AB with 5 μg/ml MD-124 (K. pneumoniae (43816); K. pneumoniae): 6.4 µg/mL
Sensitization fold with 5 μg/ml MD-124 (K. pneumoniae (43816); K. pneumoniae towards the antibiotic): 32 fold
E. coli growth inhibition / bacterial load vs vehicle group (E. coli [5]): neither 4‰ (w/w) novobiocin nor 1.5‰ MD-124 themselves achieved significant E. coli growth inhibition
Sensitization fold with 5 μg/ml MD-124 [6]: 32 fold
Sensitization fold (E. coli (ATCC 25922); [13]): 64 fold
MIC of AB with MD-124 (E. coli (ATCC 25922); E. coli): 1.6 µg/mL
MIC (E. coli (ATCC 25922); E. coli (wild type), antibiotic alone, read-out: MIC of AB only): 100 µg/mL

N[C@@H]1[C@H]2CN(c3nc4c(cc3F)c(=O)c(C(=O)O)cn4-c3ccc(F)cc3F)C[C@@H]12 [Trovafloxacin, reference compound]
sensitization fold with 5.5 μg/ml DB2560 (B. subtilis): 8 fold
Sensitization fold with 5 μg/ml MD-124 [4]: 2 fold
MRSA share of the bacteria population (MRSA and E. coli): 78%
Sensitization fold with 5 μg/ml MD-124 [6]: 32 fold
Sensitization fold (E. coli (ATCC 25922); [13]): 32 fold
MIC of AB with MD-124 (E. coli (ATCC 25922); E. coli): 0.0015 µg/mL
sensitization fold with 2.7 μg/ml DB2560 (MRSA (ATCC 33592); MRSA towards the antibiotic): 16 fold

N=C(N)c1ccc(OCCCCCOc2ccc(C(=N)N)cc2)cc1 [pentamidine, reference compound]
bacterial lysis by lysozyme in the presence of sensitizer (E. coli [7]): led to bacterial lysis
Sensitization fold (E. coli (ATCC 25922); E. coli, rifampicin, 20 μg/ml bacterial sensitizer): 4 fold
displacement of Dansyl-PMBN (fluorescent intensity) [8]: able to displace Dansyl-PMBN although not as much as MD-124
